We go through two substances from US6849612B2, “Oligonucleotide modulation of cell adhesion” (ISIS Pharmaceuticals, Inc., priority 1993, dated 2005).

Strand notation (5' to 3'): a small letter for the sugar, then the base; units joined by * are phosphorothioate-linked, units joined directly phosphodiester-linked; [ ] holds rarer units or linkages, { } end groups; capitals alone tell only the bases. d = 2'-deoxy (DNA)

For one data set, the system named is ICAM-1. Nature of the data set: ELISA of ICAM-1 cell surface expression in oligonucleotide-pretreated, cytokine-stimulated HUVEC. The data set is classed as cell-based, human. On the technique in general: An ELISA detects its analyte on a solid surface through an enzyme-linked reagent.
Data set [1] has as its system C8161 human melanoma cells. Briefly: Experimental metastasis assay of oligonucleotide-treated C8161 cells in athymic nude mice. The data set is classed as in vivo. As to the method: To evaluate the role of ICAM-1 in metastasis, experimental metastasis assays were performed by injecting 1×10^5 C8161 cells into the lateral tail vein of athymic nude mice. […] Assoc. Cancer Res. 1990, 13, 353].
After 4 weeks, mice were sacrificed, organs were fixed in Bouin's fixative and metastatic lesions on lungs were scored with the aid of a dissecting microscope. Four-week-old female athymic nude mice (Harlan Sprague Dawley) were used. Animals were maintained under the guidelines of the NIH. Groups of 4-8 mice each were tested in experimental metastasis assays.
Treatment of C8161 cells with antisense oligonucleotides ISIS 1570 and ISIS 2302, complementary to ICAM-1, was performed in the presence of the cationic lipid, Lipofectin (Gibco/BRL, Gaithersburg, Md.). Antisense oligonucleotides were synthesized as described in Example 3. Cells were seeded in 60 mm tissue culture dishes at 10^6 cells/ml and incubated at 37 °C for 3 days, washed with OPTI-MEM (Gibco/BRL) 3 times and 100 μl of OPTI-MEM medium was added to each well. 0.5 μM oligonucleotide and 15 μg/ml lipofectin were mixed at room temperature for 15 minutes. 25 μl of the oligonucleotide-lipofectin mixture was added to the appropriate dishes and incubated at 37° C. for 4 hours. The oligonucleotide-lipofectin mixture was removed and replaced with DME-F12 medium containing 10% fetal calf serum. After 4 hours, 500 U/ml TNF-α was added to the appropriate wells and incubated for 18 hours at which time cells were removed from the plates, counted and injected into athymic nude mice.

In data set [2] the test system is complementary DNA sequences (ICAM-1 target sites). Briefly: Tm of oligonucleotide hybridized to complementary DNA. The data set is classed as binding, human. The note with it: as E23. The source says:
The antisense oligonucleotides (synthesized as phosphorothioates) were hybridized to their complementary DNA sequences (synthesized as phosphodiesters). […] Tm's and free energies of duplex formation were obtained from fits of data to a two-state model with linear sloping baselines ([…]. and D. H. […] Results are averages of at least three experiments.

Regarding “ISIS 1570: phosphorothioate, human ICAM-1 AUG Codon (64-81), SEQ ID NO 1, TGGGAGCCATAGCGAGGC (antisense dT*dG*dG*dG*dA*dG*dC*dC*dA*dT*dA*dG*dC*dG*dA*dG*dG*dC)”, the “inhibition of ICAM-1 expression” value in the data set with ICAM-1 (0.1 μM oligonucleotide, HUVEC, 8 μM DOTMA, interleukin-1β 5 units/ml) was 70%; in the data set on ICAM-1 (1 μM oligonucleotide, HUVEC, 8 μM DOTMA, interleukin-1β 5 units/ml) it was 90%; in the data set with ICAM-1 (1 μM, HUVEC stimulated with increasing concentrations of tumor necrosis factor and interleukin-1), “inhibits expression of ICAM-1”. Also, the “effect on ICAM-1 expression after prehybridization to the sense strand” value with ICAM-1 (COMPOUND 2 prehybridized to COMPOUND 3 prior to addition to the cells) is “attenuated”. The “No. Lung Metastases per Mouse (Mean ± S.E.M.)” value in data set [1] (C8161 cells treated with 0.5 μM oligonucleotide + Lipofectin + TNF-α, Lipofectin + TNF-α 81 ± 8) is on record as 49 ± 6; in data set [1] (C8161 cells treated with 0.5 μM oligonucleotide + Lipofectin, no TNF-α, Lipofectin only 64 ± 13), 38 ± 15.
For the substance “ISIS 1939: P=S, human ICAM-1 3′-Untranslated (1952-1971), SEQ ID NO 15, CCCCCACCACTTCCCCTCTC (antisense dC*dC*dC*dC*dC*dA*dC*dC*dA*dC*dT*dT*dC*dC*dC*dC*dT*dC*dT*dC)”, the “Tm relative to other oligonucleotides” value in data set [2] is given as “lower than that of the majority of the other oligonucleotides”.
